Measured values published in ChEMBL document CHEMBL1201862, “PubChem BioAssay data set” (2004).
Calls of active or inactive are those of the source. Rule as the data show it, for most assays here: actives have a measured EC50 and inactives only a lower limit.

Columns and labels:
[1] = tested on: Streptococcus sp. 'group A'; experiment: Streptococcus pyogenes SK(-)GAS viability under kanamycin – luminescence, BacTiterGlo, confirmation, counter-screen for streptokinase expression inhibitor project, dose response (AID 1900); type: functional, organism-based
Streptokinase A = biological target: T1, Streptokinase A (Streptococcus pyogenes serotype M1, UniProt P10520); experiment: viability-normalized secreted streptokinase activity reduction – plasminogen activation absorbance, OD405, dose response (AID 1914); type: functional, Streptococcus pyogenes M1 GAS;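 also: secreted streptokinase activity via plasminogen activation per viability signal from cell pellet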
T1 sequence (P10520 whole entry): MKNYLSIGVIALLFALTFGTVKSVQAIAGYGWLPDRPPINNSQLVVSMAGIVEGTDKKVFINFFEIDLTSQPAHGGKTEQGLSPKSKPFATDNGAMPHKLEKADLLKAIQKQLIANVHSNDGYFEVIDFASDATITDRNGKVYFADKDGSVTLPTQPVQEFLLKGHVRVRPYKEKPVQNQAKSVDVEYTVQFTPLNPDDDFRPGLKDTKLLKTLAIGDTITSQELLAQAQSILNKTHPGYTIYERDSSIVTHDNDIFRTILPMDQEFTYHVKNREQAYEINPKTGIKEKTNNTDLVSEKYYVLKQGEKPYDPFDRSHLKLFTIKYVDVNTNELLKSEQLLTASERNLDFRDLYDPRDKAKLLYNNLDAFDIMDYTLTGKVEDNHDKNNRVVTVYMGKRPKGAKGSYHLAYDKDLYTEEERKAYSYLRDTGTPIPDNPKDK

Streptococcus = experiment: GAS UMAA2166 growth inhibition – luminescence, BacTiterGlo, counter-screen for streptokinase expression inhibitor project, dose response (AID 1915); type: functional, organism-based;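 also: potency for reduction of bacterial viability or growth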
[2] = Trypanosoma cruzi growth suppression in host cells – NIH3T3 host cells, beta-gal luminescence, confirmation (AID 2044); type: functional, cell-based;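 also: intracellular parasites grown in NIH/3T3 mouse fibroblasts as host cells; luminescent beta-galactosidase reporter signal from transgenic T. cruzi replicating inside host cells; inhibitors lower the luminescence signal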
[3] = NIH3T3 cell viability loss – ATP luminescence, mouse fibroblasts, counter-screen, dose response (AID 2010); type: functional, cell-based;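 also: cells exposed to compound for about 90 hours before reading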
Cytochrome P450 2D6 = Cytochrome P450 2D6 (Homo sapiens, UniProt P10635);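 also: CYP2D6 member of a cytochrome P450 panel assay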
[4] = biological target: T2, Corticotropin-releasing factor receptor 2/Corticotropin-releasing factor-binding protein (Homo sapiens, UniProt P24387+Q13324); experiment: Dose Response confirmation of uHTS hits for small molecule antagonists of the CRF-binding protein and CRF-R2 receptor complex.; type: functional; conditions: read-out: IC50_Mean
T2 sequence (Q13324 whole entry): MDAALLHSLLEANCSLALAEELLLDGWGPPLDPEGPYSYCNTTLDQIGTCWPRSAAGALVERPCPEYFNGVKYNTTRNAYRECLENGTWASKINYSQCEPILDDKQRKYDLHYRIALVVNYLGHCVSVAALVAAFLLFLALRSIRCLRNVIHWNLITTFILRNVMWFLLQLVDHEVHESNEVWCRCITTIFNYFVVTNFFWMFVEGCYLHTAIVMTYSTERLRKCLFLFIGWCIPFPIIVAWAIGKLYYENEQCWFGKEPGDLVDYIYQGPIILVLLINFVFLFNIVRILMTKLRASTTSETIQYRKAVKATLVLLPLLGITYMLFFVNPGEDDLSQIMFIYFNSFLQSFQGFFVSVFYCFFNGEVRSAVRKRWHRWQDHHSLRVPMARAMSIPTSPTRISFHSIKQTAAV
T2 sequence (P24387 whole entry): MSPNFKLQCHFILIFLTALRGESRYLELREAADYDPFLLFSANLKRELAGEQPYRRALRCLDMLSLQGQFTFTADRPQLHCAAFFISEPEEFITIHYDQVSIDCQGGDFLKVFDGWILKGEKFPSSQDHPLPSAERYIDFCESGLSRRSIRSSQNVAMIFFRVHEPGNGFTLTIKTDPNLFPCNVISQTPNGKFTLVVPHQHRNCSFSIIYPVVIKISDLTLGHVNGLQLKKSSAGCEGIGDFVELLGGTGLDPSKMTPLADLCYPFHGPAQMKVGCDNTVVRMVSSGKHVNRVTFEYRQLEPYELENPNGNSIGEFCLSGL

[5] = biological target: T2, Corticotropin-releasing factor receptor 2/Corticotropin-releasing factor-binding protein; experiment: activators of CRF receptor 2 with binding protein – uHTS hits, confirmation (AID 602473); type: functional; conditions: read-out: EC50_Mean

Chain of Cytochrome P450 2D6 (P10635 whole entry): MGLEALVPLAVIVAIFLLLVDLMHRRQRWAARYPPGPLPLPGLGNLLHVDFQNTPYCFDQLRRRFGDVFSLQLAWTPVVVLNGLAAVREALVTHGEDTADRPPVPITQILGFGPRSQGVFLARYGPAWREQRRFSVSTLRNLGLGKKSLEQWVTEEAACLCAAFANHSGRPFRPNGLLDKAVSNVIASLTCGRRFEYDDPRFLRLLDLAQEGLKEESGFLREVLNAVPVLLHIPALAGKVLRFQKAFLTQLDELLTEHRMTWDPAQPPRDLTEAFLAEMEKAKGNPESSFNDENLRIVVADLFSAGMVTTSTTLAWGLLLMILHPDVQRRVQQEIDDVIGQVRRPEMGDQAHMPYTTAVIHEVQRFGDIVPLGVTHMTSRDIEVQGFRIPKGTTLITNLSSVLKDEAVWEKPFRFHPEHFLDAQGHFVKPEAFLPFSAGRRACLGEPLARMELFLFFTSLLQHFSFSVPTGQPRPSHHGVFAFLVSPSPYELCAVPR

## Fc1ccc(-c2cc(C(F)(F)F)nc(N3CCCCC3)n2)cc1
[1]
  EC50: 10.3 µM (active)
Streptokinase A
  EC50: 6.14 µM (active)
Streptococcus
  EC50: 13.1 µM (active)

## CC1CCCN(CCOCCSc2ccccc2)C1 (stereo not drawn)
[2]
  EC50: 0.297 µM (active)
[3]
  EC50: > 60 µM (not active)

## CCOC(=O)Cn1c(CN(Cc2ccccc2)Cc2ccccc2)nc2c1c(=O)[nH]c(=O)n2C
Cytochrome P450 2D6
  AC50: 31.6 µM (inconclusive)

## CCOP(=O)(OCC)c1cc(CC)ccc1O
[4]
  IC50: > 47.1 µM (inactive)
[5]
  EC50: > 53 µM (inactive)

## C/C=C/c1ccc(OCC(O)CN(C)Cc2ccc(SC)cc2)c(OC)c1 (stereo not drawn)
[2]
  EC50: 0.388 µM (active)
[3]
  EC50: > 60 µM (not active)

## C[C@H](C(=O)O)c1cccc(Oc2ccccc2)c1
Cytochrome P450 2D6
  AC50: 12.6 µM (inconclusive)

## CN1CCc2cc3c(cc2[C@@H]1[C@@H]1C(=O)Oc2c1ccc1c2OCO1)OCO3
Cytochrome P450 2D6
  AC50: 39.8 µM (inconclusive)

## Cc1ccccc1NC(=O)C(C)c1cccc(C(=O)c2ccccc2)c1 (stereo not drawn)
Cytochrome P450 2D6
  AC50: 25.1 µM (inconclusive)

## CCOC(=O)c1ccc(NC(S)=NN2CCN(C)CC2)cc1
[2]
  EC50: 1.08 µM (active)
[3]
  EC50: > 60 µM (inconclusive)

## COc1ccc(/C=C(/C(=O)c2ccc(Cl)cc2Cl)n2cncn2)cc1
[2]
  EC50: 0.423 µM (active)
[3]
  EC50: 31.4 µM (active)

## O=C(CNS(=O)(=O)c1cccs1)NCCc1ccc(Cl)cc1
[4]
  IC50: > 47.1 µM (inactive)
[5]
  EC50: > 53 µM (inactive)

## CC1=C(C)CC2(C(=O)NC(=S)NC2=O)C(C)C1 (stereo not drawn)
[5]
  EC50: > 53 µM (inactive)

## Cc1ccc(NC(=O)c2c(C(F)(F)F)nn(C)c2SCc2ccc(Cl)cc2)cc1C
[2]
  EC50: 2.84 µM (active)
[3]
  EC50: > 60 µM (not active)

## COc1ccc(C2CC3=Nc4ncnn4C(c4ccccc4C)C3=C(O)C2)c(OC)c1 (stereo not drawn)
[2]
  EC50: 1.56 µM (active)
[3]
  EC50: > 60 µM (not active)

## CC(C(=O)Nc1sccc1C(N)=O)N1C(=O)C2CC=CCC2C1=O (stereo not drawn)
[4]
  IC50: > 47.1 µM (inactive)
[5]
  EC50: > 53 µM (inactive)

## CCOc1ccc(NS(=O)(=O)c2ccc(NC(=O)[C@@H]3CCCC[C@@H]3C(=O)O)cc2)cc1
[5]
  EC50: > 53 µM (inactive)

## O=C(c1cnccn1)N1CCC2(CCCN(c3ncccn3)C2)CC1
Cytochrome P450 2D6
  AC50: 15.8 µM (inconclusive)

## Cc1noc(C)c1-c1ccc2ncnc(NCc3cccnc3)c2c1
Cytochrome P450 2D6
  AC50: 12.6 µM (inconclusive)

## COc1ccc(O)c(C(=O)c2cc(C#N)c(=O)n(-c3c(C)n(C)n(-c4ccccc4)c3=O)c2)c1
[5]
  EC50: 6.39 µM (active)

## O=C(CNc1cccc2ccccc12)N/N=C/c1ccc[nH]1
[1]
  EC50: > 150 µM (not active)
Streptokinase A
  EC50: > 150 µM (not active)
Streptococcus
  EC50: > 150 µM (not active)

## COc1cccc(N/C(SCc2cccc([N+](=O)[O-])c2)=C(/C#N)C(N)=O)c1
[2]
  EC50: 4.17 µM (active)
[3]
  EC50: > 60 µM (not active)

## COc1ccccc1OCC(=O)NCC1CCCN(C(=O)c2ccccc2C(C)=O)C1 (stereo not drawn)
[4]
  IC50: > 47.1 µM (inactive)
[5]
  EC50: > 53 µM (inactive)

## Cc1cccc(N2CCN(C(=O)c3ccc(Cl)c(S(=O)(=O)N4CCc5ccccc5C4)c3)CC2)c1C
[2]
  EC50: 1.13 µM (active)
[3]
  EC50: > 60 µM (inconclusive)

## Cc1cccc(Nc2nc(N)nc(CN3CCN(c4ccc(F)cc4)CC3)n2)c1
[1]
  EC50: 12.1 µM (active)
Streptokinase A
  EC50: > 150 µM (not active)
Streptococcus
  EC50: 95.3 µM (active)

## CC(C)Oc1cccc(C(=O)C2CCCN(Cc3cnc(N4CCOCC4)s3)C2)c1 (stereo not drawn)
[2]
  EC50: 0.146 µM (active)
[3]
  EC50: > 30 µM (not active)

## COc1ccc(/C=c2\s/c(=C/C(=O)c3ccc(C)cc3)[nH]c2=O)cc1OC
[1]
  EC50: 13.2 µM (active)
Streptokinase A
  EC50: > 150 µM (not active)
Streptococcus
  EC50: > 150 µM (not active)
[5]
  EC50: 13.4 µM (active)

## COc1cccc(-c2nc(NCc3ccccc3)c3ccccc3n2)c1
Cytochrome P450 2D6
  AC50: 20 µM (inconclusive)

## Cc1ccc(N/N=C/C=C/c2ccco2)cc1
[2]
  EC50: 3.31 µM (active)
[3]
  EC50: > 30 µM (not active)

## CNc1c([N+](=O)[O-])nn(-c2ccc3c(c2)OCCO3)[n+]1[O-]
[2]
  EC50: 0.68 µM (active)
[3]
  EC50: 20.1 µM (active)

## CC(C)(C)CC(=O)N1CCC(c2nc(O)c3nnn(Cc4c(F)cccc4Cl)c3n2)CC1
Streptokinase A
  EC50: > 150 µM (not active)
Streptococcus
  EC50: 16.7 µM (active)

## CCCC[C@@H]1C[C@H]1C(NC(=O)c1ccco1)c1ccc(Cl)cc1 (stereo partly drawn)
Cytochrome P450 2D6
  AC50: 39.8 µM (inconclusive)

## N#Cc1ccc(CSc2nnc(-c3ccncc3)n2CCc2ccccc2)cc1
[2]
  EC50: 0.772 µM (active)
[3]
  EC50: > 60 µM (not active)

## O=C(CSc1nnc(NC(=O)c2ccccc2)s1)NCC1CCCO1 (stereo not drawn)
[1]
  EC50: > 150 µM (not active)
Streptokinase A
  EC50: > 150 µM (not active)
Streptococcus
  EC50: > 150 µM (not active)

## Cc1noc(/C=C/c2ccc(-c3ccccc3Cl)o2)c1[N+](=O)[O-]
[5]
  EC50: 5.11 µM (active)

## Cc1ccc(N2C(=O)NC(=O)/C(=C\c3ccoc3)C2=O)cc1
[5]
  EC50: > 53 µM (inactive)

## Cc1cc(C)c2nc(NC(=O)c3ccc4c(=O)n5c(nc4c3)CCCCC5)sc2c1
[4]
  IC50: > 47.1 µM (inactive)
[5]
  EC50: > 53 µM (inactive)

## Cn1c2ccccc2c(=O)c2cc(C#Cc3ccc(N)cc3)ccc21
[1]
  EC50: 0.713 µM (active)
Streptococcus
  EC50: 3.34 µM (active)

## Cc1cc(S(=O)(=O)NCc2ccccc2)ccc1OCC(=O)NCC1CCCO1 (stereo not drawn)
[5]
  EC50: > 53 µM (inactive)

## O=C(NCC1COc2ccccc2O1)c1ccc(NC(=O)C(c2ccccc2)c2ccccc2)cc1 (stereo not drawn)
[2]
  EC50: 1.88 µM (active)
[3]
  EC50: > 60 µM (inconclusive)

## CN(CC[C@@H](Oc1ccc(-c2ccccc2)cc1)c1ccc(F)cc1)CC(=O)O
Cytochrome P450 2D6
  AC50: 31.6 µM (inconclusive)

## Cc1cc(NC(=O)CCCn2cnc([N+](=O)[O-])n2)no1
[2]
  EC50: 0.797 µM (active)
[3]
  EC50: > 60 µM (inconclusive)

## COc1ccc(NC(=O)N2CCCC3(CCN(S(=O)(=O)c4ccccc4)CC3)C2)cc1
Cytochrome P450 2D6
  AC50: 15.8 µM (inconclusive)

## CCOc1ccc(N=C(N)Nc2nc(C)cc(C)n2)cc1
[5]
  EC50: 6.95 µM (active)

## Cc1ccc(-c2nn(C(C)(C)C)c3ncnc(NS(=O)(=O)c4ccc([N+](=O)[O-])cc4)c23)cc1
[2]
  EC50: 2.33 µM (active)
[3]
  EC50: > 60 µM (not active)

## CSc1ccccc1C(=O)C1CCCN(Cc2cnn(-c3ccccc3)c2)C1 (stereo not drawn)
[2]
  EC50: 0.245 µM (active)
[3]
  EC50: > 60 µM (not active)

## Cc1cc(S(=O)(=O)NCCC2=CCCCC2)ccc1Br
[1]
  EC50: 9.73 µM (active)
Streptokinase A
  EC50: 10.4 µM (active)
Streptococcus
  EC50: > 150 µM (not active)

## CCN(CC)CCn1c(SCC(=O)NCCC2=CCCCC2)nc2c(sc3ccccc32)c1=O
[2]
  EC50: 2 µM (active)
[3]
  EC50: 15.7 µM (active)

## Cc1c(C(=O)Nc2ccc(S(=O)(=O)N(C)C3CCN(C)CC3)cc2)oc2c(Cl)cccc12
[2]
  EC50: 0.85 µM (active)
[3]
  EC50: > 30 µM (not active)

## COc1ccc(CN2CCN(Cc3cccc4nonc34)CC2CCO)c(C)c1C (stereo not drawn)
[2]
  EC50: 0.403 µM (active)
[3]
  EC50: > 60 µM (not active)

## CS(=O)(=O)N1CCC2(CC1)CN(Cc1ccccc1)C2
Cytochrome P450 2D6
  AC50: 15.8 µM (inconclusive)

## O=C(Nc1cccc2ncccc12)c1ccc2c(c1)OCCO2
[5]
  EC50: > 53 µM (inactive)

## c1ccc(C(c2nnnn2C2CCCC2)N2CCN(c3nc4ccccc4s3)CC2)cc1 (stereo not drawn)
[2]
  EC50: 1.95 µM (active)
[3]
  EC50: > 60 µM (not active)

## O=C(Nc1nc(-c2ccccc2)cs1)c1cccc([N+](=O)[O-])c1
[2]
  EC50: 2.4 µM (active)
[3]
  EC50: > 60 µM (not active)

## CN(C)CCCN(C(=O)c1cc2ccccc2oc1=O)c1nc2c(F)cccc2s1
[2]
  EC50: 0.118 µM (active)
[3]
  EC50: > 60 µM (not active)

## Cc1ccccc1S(=O)(=O)Cc1ccc(C(=O)NCCN2CCN(Cc3ccccc3)CC2)o1
[2]
  EC50: 1.4 µM (active)
[3]
  EC50: > 60 µM (not active)
